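Tested at 5 concentrations; 48 h exposure; 96-well plates; endpoints linearly interpolated, else capped at highest concentration. The concentration for 50% growth inhibition is given as GI50.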 Calls of active or inactive are those of the source. Rule as the data show it: active = GI50 up to about 1.1 µM and inactive = higher.
Legend:
Assay in all cases: growth of human tumour cells (NCI), 48 h
786-0 = tested on: 786-0
A498 = tested on: A498
A549 = tested on: A549
ACHN = tested on: ACHN
BT-549 = tested on: BT-549
CAKI-1 = tested on: CAKI-1
CCRF-CEM = tested on: CCRF-CEM
COLO 205 = tested on: COLO 205
DU-145 = tested on: DU-145
EKVX = tested on: EKVX
HCC 2998 = tested on: HCC 2998
HCT-116 = tested on: HCT-116
HCT-15 = tested on: HCT-15
HL-60 = tested on: HL-60
HOP-62 = tested on: HOP-62
HOP-92 = tested on: HOP-92
HT-29 = tested on: HT-29
Hs-578T = tested on: Hs-578T
IGROV-1 = tested on: IGROV-1
K562 = tested on: K562
KM12 = tested on: KM12
LOX IMVI = tested on: LOX IMVI
M14 = tested on: M14
MCF7 = tested on: MCF7
MDA-MB-231 = tested on: MDA-MB-231
MDA-MB-435 = tested on: MDA-MB-435
MDA-N = tested on: MDA-N
MOLT-4 = tested on: MOLT-4
Malme-3M = tested on: Malme-3M
NCI-H226 = tested on: NCI-H226
NCI-H460 = tested on: NCI-H460
NCI-H522 = tested on: NCI-H522
NCI/ADR-RES = tested on: NCI/ADR-RES
OVCAR-4 = tested on: OVCAR-4
OVCAR-5 = tested on: OVCAR-5
OVCAR-8 = tested on: OVCAR-8
PC-3 = tested on: PC-3
RPMI-8226 = tested on: RPMI-8226
RXF 393 = tested on: RXF 393
SF-268 = tested on: SF-268
SF-539 = tested on: SF-539
SK-MEL-28 = tested on: SK-MEL-28
SK-MEL-2 = tested on: SK-MEL-2
SK-MEL-5 = tested on: SK-MEL-5
SN12C = tested on: SN12C
SNB-19 = tested on: SNB-19
SNB-75 = tested on: SNB-75
SR = tested on: SR
SW-620 = tested on: SW-620
T47D = tested on: T47D
TK-10 = tested on: TK-10
U-251 = tested on: U-251
UACC-257 = tested on: UACC-257
NCI-H23 = tested on: NCI-H23
SF-295 = tested on: SF-295
SK-OV-3 = tested on: SK-OV-3
UACC-62 = tested on: UACC-62
UO-31 = tested on: UO-31
OVCAR-3 = tested on: OVCAR-3

## O=c1[nH]c(=O)n(COCc2ccccc2)c2ccsc12
786-0
  GI50: > 100 µM (inactive)
A498
  GI50: > 100 µM (inactive)
A549
  GI50: > 100 µM (inactive)
ACHN
  GI50: > 100 µM (inactive)
BT-549
  GI50: > 100 µM (inactive)
CAKI-1
  GI50: > 100 µM (inactive)
CCRF-CEM
  GI50: 60.4 µM (inactive)
COLO 205
  GI50: > 100 µM (inactive)
DU-145
  GI50: > 100 µM (inactive)
EKVX
  GI50: 22.2 µM (inactive)
HCC 2998
  GI50: > 100 µM (inactive)
HCT-116
  GI50: > 100 µM (inactive)
HCT-15
  GI50: 29.2 µM
HL-60
  GI50: > 10 µM (inactive)
HOP-62
  GI50: 96.4 µM (inactive)
HOP-92
  GI50: 15.8 µM (inactive)
HT-29
  GI50: > 100 µM (inactive)
Hs-578T
  GI50: 49.1 µM (inactive)
IGROV-1
  GI50: > 100 µM (inactive)
K562
  GI50: 59 µM (inactive)
KM12
  GI50: > 100 µM (inactive)
LOX IMVI
  GI50: > 100 µM (inactive)
M14
  GI50: > 100 µM (inactive)
MCF7
  GI50: > 100 µM (inactive)
MDA-MB-231
  GI50: > 100 µM (inactive)
MDA-MB-435
  GI50: > 100 µM (inactive)
MDA-N
  GI50: > 100 µM (inactive)
MOLT-4
  GI50: > 100 µM (inactive)
Malme-3M
  GI50: > 100 µM (inactive)
NCI-H226
  GI50: > 100 µM (inactive)
NCI-H460
  GI50: 55.8 µM (inactive)
NCI-H522
  GI50: > 100 µM (inactive)
NCI/ADR-RES
  GI50: > 100 µM (inactive)
OVCAR-4
  GI50: > 100 µM (inactive)
OVCAR-5
  GI50: > 100 µM (inactive)
OVCAR-8
  GI50: > 100 µM (inactive)
PC-3
  GI50: 61.9 µM (inactive)
RPMI-8226
  GI50: > 100 µM (inactive)
RXF 393
  GI50: > 100 µM (inactive)
SF-268
  GI50: > 100 µM (inactive)
SF-539
  GI50: 66.8 µM (inactive)
SK-MEL-28
  GI50: > 100 µM (inactive)
SK-MEL-2
  GI50: > 100 µM (inactive)
SK-MEL-5
  GI50: > 100 µM (inactive)
SN12C
  GI50: > 100 µM (inactive)
SNB-19
  GI50: 73.8 µM (inactive)
SNB-75
  GI50: 75 µM (inactive)
SR
  GI50: 88.7 µM (inactive)
SW-620
  GI50: > 100 µM (inactive)
T47D
  GI50: > 100 µM (inactive)
TK-10
  GI50: > 100 µM (inactive)
U-251
  GI50: > 100 µM (inactive)
UACC-257
  GI50: > 100 µM (inactive)

## Clc1ccccc1-c1nc2cc(C34CC5CC(CC(C5)C3)C4)ccc2[nH]1
786-0
  GI50: 12.1 µM (inactive)
A498
  GI50: 25 µM (inactive)
A549
  GI50: 11.4 µM (inactive)
ACHN
  GI50: 11.6 µM (inactive)
BT-549
  GI50: 20 µM (inactive)
CAKI-1
  GI50: 31.4 µM (inactive)
CCRF-CEM
  GI50: 33 µM (inactive)
COLO 205
  GI50: 34 µM (inactive)
DU-145
  GI50: 23.2 µM (inactive)
EKVX
  GI50: 29.1 µM (inactive)
HCC 2998
  GI50: 49.3 µM (inactive)
HCT-116
  GI50: 55.1 µM (inactive)
HCT-15
  GI50: 41.9 µM
HL-60
  GI50: 23.7 µM (inactive)
HOP-62
  GI50: 14.3 µM (inactive)
HOP-92
  GI50: 10.5 µM (inactive)
HT-29
  GI50: 11.4 µM (inactive)
Hs-578T
  GI50: 28.8 µM (inactive)
IGROV-1
  GI50: 17.3 µM (inactive)
K562
  GI50: 27.5 µM (inactive)
KM12
  GI50: 53.2 µM (inactive)
LOX IMVI
  GI50: 12.4 µM (inactive)
M14
  GI50: 19.8 µM (inactive)
MCF7
  GI50: 11.2 µM (inactive)
MDA-MB-231
  GI50: 15 µM (inactive)
MDA-MB-435
  GI50: > 100 µM (inactive)
MDA-N
  GI50: 44 µM (inactive)
MOLT-4
  GI50: 79.8 µM (inactive)
Malme-3M
  GI50: 25.5 µM (inactive)
NCI-H226
  GI50: 25.4 µM (inactive)
NCI-H23
  GI50: 14.4 µM (inactive)
NCI-H460
  GI50: 30.3 µM (inactive)
NCI-H522
  GI50: 17 µM (inactive)
NCI/ADR-RES
  GI50: 28.1 µM (inactive)
OVCAR-4
  GI50: 21.5 µM (inactive)
OVCAR-5
  GI50: 17.8 µM (inactive)
OVCAR-8
  GI50: 10.9 µM (inactive)
PC-3
  GI50: 15.1 µM (inactive)
RPMI-8226
  GI50: 34.2 µM (inactive)
RXF 393
  GI50: 5.4 µM (inactive)
SF-268
  GI50: 41.1 µM (inactive)
SF-295
  GI50: 13.6 µM (inactive)
SK-MEL-28
  GI50: 20.6 µM (inactive)
SK-MEL-2
  GI50: 15 µM (inactive)
SK-MEL-5
  GI50: 32.7 µM (inactive)
SK-OV-3
  GI50: 16.1 µM (inactive)
SN12C
  GI50: 24.3 µM (inactive)
SNB-19
  GI50: 10 µM (inactive)
SNB-75
  GI50: 5.71 µM (inactive)
SR
  GI50: 20.2 µM (inactive)
SW-620
  GI50: 46 µM (inactive)
T47D
  GI50: 10.9 µM (inactive)
TK-10
  GI50: 19.1 µM (inactive)
U-251
  GI50: 7.98 µM (inactive)
UACC-257
  GI50: 59.7 µM (inactive)
UACC-62
  GI50: 13.9 µM (inactive)
UO-31
  GI50: 14.7 µM (inactive)

## Cc1cccc2c1CC1(Cc3ccccc3C1=O)C2=O (configuration not stated)
786-0
  GI50: > 100 µM (inactive)
A498
  GI50: > 100 µM (inactive)
A549
  GI50: > 100 µM (inactive)
ACHN
  GI50: > 100 µM (inactive)
BT-549
  GI50: 24.7 µM (inactive)
CCRF-CEM
  GI50: > 100 µM (inactive)
COLO 205
  GI50: > 100 µM (inactive)
DU-145
  GI50: > 100 µM (inactive)
EKVX
  GI50: > 100 µM (inactive)
HCC 2998
  GI50: > 100 µM (inactive)
HCT-116
  GI50: > 100 µM (inactive)
HCT-15
  GI50: > 100 µM
HL-60
  GI50: > 100 µM (inactive)
HOP-62
  GI50: 35.7 µM (inactive)
HOP-92
  GI50: 76.9 µM (inactive)
HT-29
  GI50: > 100 µM (inactive)
Hs-578T
  GI50: 26.2 µM (inactive)
IGROV-1
  GI50: > 100 µM (inactive)
K562
  GI50: > 100 µM (inactive)
KM12
  GI50: > 100 µM (inactive)
LOX IMVI
  GI50: > 100 µM (inactive)
M14
  GI50: > 100 µM (inactive)
MCF7
  GI50: > 100 µM (inactive)
MDA-MB-231
  GI50: > 100 µM (inactive)
MDA-MB-435
  GI50: > 100 µM (inactive)
MDA-N
  GI50: > 100 µM (inactive)
MOLT-4
  GI50: > 100 µM (inactive)
Malme-3M
  GI50: > 100 µM (inactive)
NCI-H226
  GI50: > 100 µM (inactive)
NCI-H23
  GI50: > 100 µM (inactive)
NCI-H460
  GI50: > 100 µM (inactive)
NCI-H522
  GI50: > 100 µM (inactive)
NCI/ADR-RES
  GI50: > 100 µM (inactive)
OVCAR-3
  GI50: > 100 µM (inactive)
OVCAR-4
  GI50: > 100 µM (inactive)
OVCAR-5
  GI50: > 100 µM (inactive)
OVCAR-8
  GI50: > 100 µM (inactive)
PC-3
  GI50: > 100 µM (inactive)
RPMI-8226
  GI50: > 100 µM (inactive)
RXF 393
  GI50: > 100 µM (inactive)
SF-268
  GI50: 87.1 µM (inactive)
SF-295
  GI50: > 100 µM (inactive)
SF-539
  GI50: > 100 µM (inactive)
SK-MEL-28
  GI50: > 100 µM (inactive)
SK-MEL-5
  GI50: > 100 µM (inactive)
SK-OV-3
  GI50: 37.6 µM (inactive)
SN12C
  GI50: > 100 µM (inactive)
SNB-19
  GI50: > 100 µM (inactive)
SNB-75
  GI50: 77.4 µM (inactive)
SR
  GI50: > 100 µM (inactive)
SW-620
  GI50: > 100 µM (inactive)
T47D
  GI50: > 100 µM (inactive)
TK-10
  GI50: > 100 µM (inactive)
U-251
  GI50: > 100 µM (inactive)
UACC-257
  GI50: > 100 µM (inactive)
UACC-62
  GI50: 75.7 µM (inactive)
UO-31
  GI50: > 100 µM (inactive)
